How the values were obtained:
Test in all cases: normalised response (% of control), CellTox Green; higher = less cell death (100 = DMSO, 0 = benzethonium chloride kill control)
Details in all cases: incubation time: 72 h
MFM-223 = tested on: MFM-223
Outline: (§1)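 Breast cancer cell lines were exposed for 72 h in 384-well plates to compound at 5 concentrations, 10-fold apart, covering a 10,000-fold range fixed for each compound. Plates were read for CellTox Green fluorescence and CellTiter-Glo luminescence and normalised to 0.1 % DMSO (100) and a positive kill control (0). Each value is the normalised signal at one concentration of the series.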

CAL-148 = tested on: CAL-148
Outline: as §1

HCC1937 = tested on: HCC1937
Outline: as §1

MDA-MB-231 = tested on: MDA-MB-231
Outline: as §1

MDA-MB-436 = tested on: MDA-MB-436
Outline: as §1

BT-549 = tested on: BT-549
Outline: as §1

MDA-MB-453 = tested on: MDA-MB-453
Outline: as §1

HDQ-P1 = tested on: HDQ-P1
Outline: as §1

HCC1143 = tested on: HCC1143
Outline: as §1

MCF-10A = tested on: MCF-10A
Outline: as §1

Hs578T = tested on: Hs578T
Outline: as §1

DU-4475 = tested on: DU-4475
Outline: as §1

CAL-51 = tested on: CAL-51
Outline: as §1

CAL-85-1 = tested on: CAL-85-1
Outline: as §1

CAL-120 = tested on: CAL-120
Outline: as §1

HCC1599 = tested on: HCC1599
Outline: as §1

BT-474 = tested on: BT-474
Outline: as §1

MDA-MB-468 = tested on: MDA-MB-468
Outline: as §1

Structure (SMILES) | normalised response (MFM-223) [%] | normalised response (CAL-148) [%] | normalised response (HCC1937) [%] | normalised response (MDA-MB-231) [%] | normalised response (MDA-MB-436) [%] | normalised response (BT-549) [%] | normalised response (MDA-MB-453) [%] | normalised response (HDQ-P1) [%] | normalised response (HCC1143) [%] | normalised response (MCF-10A) [%] | normalised response (Hs578T) [%] | normalised response (DU-4475) [%] | normalised response (CAL-51) [%] | normalised response (CAL-85-1) [%] | normalised response (CAL-120) [%] | normalised response (HCC1599) [%] | normalised response (BT-474) [%] | normalised response (MDA-MB-468) [%]
C[C@]12CC[C@@H]3c4ccc(O)cc4C[C@@H](CCCCCCCCC[S+]([O-])CCCC(F)(F)C(F)(F)F)[C@H]3[C@@H]1CC[C@@H]2O (some centres undefined) [Fulvestrant] (1000 nM) | 97.8 | 100 | 98.5 | 115 | 93 | 91.9 | 97.9 | 111 | 113 | 101 | 121 | 99.7 | 117 | 74.9 | 97.9 | 98 | 102 | –
COc1cc([C@@H]2c3cc4c(cc3[C@@H](O[C@@H]3O[C@@H]5CO[C@@H](C)O[C@H]5[C@H](O)[C@H]3O)[C@H]3COC(=O)[C@H]23)OCO4)cc(OC)c1O [Etoposide] (1000 nM) | 103 | 30.9 | – | – | 13.2 | 109 | 94.8 | 95.6 | 120 | 110 | – | 93.7 | 50.3 | 99.6 | 95.7 | 97 | 101 | 102
C#Cc1cccc(Nc2ncnc3cc(OCCOC)c(OCCOC)cc23)c1 [Erlotinib] (10000 nM) | 69.3 | 85.1 | 81.4 | – | 102 | 95.8 | 95.1 | 79.7 | 16.9 | 104 | 64.7 | 101 | 86 | 46 | 100 | 104 | 83.9 | 97.7
Cn1c(CCCC(=O)O)nc2cc(N(CCCl)CCCl)ccc21 [Bendamustine] (10000 nM) | 96.5 | 92.6 | 90.7 | – | 114 | 118 | 101 | – | 129 | 95.4 | – | 103 | 115 | 84.3 | 99.4 | 111 | 101 | –
Cn1c(CCCC(=O)O)nc2cc(N(CCCl)CCCl)ccc21 [Bendamustine] (1000 nM) | 105 | 101 | 119 | 117 | 81.8 | 119 | 104 | 95.9 | 84.8 | 67.1 | – | 103 | 116 | 101 | 99.9 | 101 | 103 | 121
Cc1ccc(C(=O)N(CCCN)[C@@H](c2oc3cc(Cl)ccc3c(=O)c2Cc2ccccc2)C(C)C)cc1 (100 nM) | 90.5 | 106 | 84.6 | 87.5 | 105 | 91.1 | 93.5 | – | – | 80 | – | 95.1 | 74.4 | 99.9 | 98.8 | 99.7 | 102 | 59.9
Cc1ccc(-n2nc(C(C)(C)C)cc2NC(=O)Nc2ccc(OCCN3CCOCC3)c3ccccc23)cc1 [Doramapimod] (10000 nM) | 96.5 | 98.2 | 79.6 | – | 55.2 | 110 | 104 | 96.2 | 75.8 | 101 | 71.6 | 100 | 86.3 | 126 | 93.6 | 99 | 97.5 | 132
N.N.[Cl][Pt][Cl] [Cisplatin] (1000 nM) | 93.2 | 109 | 92.5 | 94.5 | 98.4 | 89.3 | 95.4 | 109 | 108 | 123 | 144 | 97.5 | 100 | 97.9 | 106 | 92 | 103 | –
O=C1CCC(N2C(=O)c3ccccc3C2=O)C(=O)N1 (centres undefined) [Thalidomide] (1000 nM) | 100 | 97.4 | 99 | 63.5 | 109 | – | 103 | 111 | 99 | – | 97.6 | 98.5 | 111 | 108 | 101 | 98.2 | 97.5 | 130
O=P1(NCCCl)OCCCN1CCCl (centres undefined) [Ifosfamide] (10000 nM) | 95.7 | 95.8 | – | 89 | 82.4 | 77.5 | 104 | 101 | 99.9 | – | 54.2 | 94.9 | 93.9 | 133 | 100 | 93.6 | 70.9 | 193
CC1(C)NC(=O)N(c2ccc([N+](=O)[O-])c(C(F)(F)F)c2)C1=O [Nilutamide] (10000 nM) | 96.2 | 101 | 92.1 | 105 | 102 | 107 | 97.3 | 98.1 | – | 79.5 | 102 | 104 | 102 | 83.5 | 101 | 102 | 98.8 | 115
CN(C)/N=N/c1[nH]cnc1C(N)=O [Dacarbazine] (10000 nM) | 96.7 | – | – | 101 | 91.3 | 94.1 | 101 | 111 | 116 | 103 | 126 | 98.9 | 111 | 81.7 | 105 | 104 | 95 | 104
